We go through two substances from PMC7889164, “Efficient expression of a cnidarian peptide-gated ion channel in mammalian cells” (Channels, 2021).

In one experiment the test system is HyNaCs. Particulars: ref [1–3]; cited from earlier work. An excerpt: Electrophysiological properties of HyNaCs have been successfully characterized in Xenopus laevis oocytes [[1–3],[6]]. While expression in oocytes typically results in large current amplitudes of the foreign ion channel, expression in mammalian expression systems is better suited to study, for example, trafficking and regulation of an ion channel. In this study, we, therefore, expressed HyNaC2/3/5 ...

Experiment [1] concerns HyNaC2/3/5. Briefly: Whole-cell patch clamp, current density, COS-7 cells expressing HyNaC2/3/5 (native or codon-optimized). The settings on record: for current density: holding potential −70 mV, mean ± SD. The class given is cell-based, Hydra magnipapillata. As to the method:
(§1) Cells were grown at 37 °C in a humidified atmosphere with 5% CO2. HEK 293 T and COS-7 cells were maintained as an adherent monolayer in Dulbecco’s modified Eagle’s medium supplemented with 10% FBS and 2 mM L-glutamine. Cells were passaged every 2–3 days.
(§2) Holding potential was −70 mV.
(§3) Statistical significance was defined as p < 0.05.

Experiment [2] has as its system HyNaC2/3/5. Briefly: Whole-cell patch clamp, current density, HEK 293 cells expressing HyNaC2/3/5 (native or codon-optimized). The class given is cell-based, Hydra magnipapillata. The settings on record: for current density: holding potential −70 mV, mean ± SD. As to the method:
as §1, §2, §3

Experiment [3] concerns HyNaC2/3/5. Particulars: Xenopus oocytes, ref [3], cited from earlier work.
Experiment [4] deals with HyNaC2/3/5. Briefly: Ca^2+ imaging (Fura-2), HEK 293 cells expressing HyNaC2/3/5. The settings on record: 1 µM Hydra-RFamide II, Fura-2 340/380 nm, 6 experiments, 2 transfections, ionomycin 1 µM positive control. The class given is cell-based, Hydra magnipapillata. The method, then:
For Ca^2+ imaging, cells were grown on coverslips and transfected as described for electrophysiological recordings. Approximately 48 h after transfection, cells were loaded with 2 µM of Fura-2-AM (Molecular Probes) for 30 min at 37 °C. Subsequently, the coverslips were mounted in a cell chamber and perfused with bath solution. Fura-2 was excited at 340/380 nm and the emission was recorded between 470 and 550 nm on an inverted microscope (IX71, Olympus, Chromaphor) using a sensicam CCD camera (PCO imaging). Acquisition and data analysis were performed using Till Vision real-time imaging software (Till Photonics). At the end of each experiment, a bath solution containing 1 µM ionomycin was used as a positive control.
as §3

Experiment [5] deals with HyNaC2/3/5 (HA-tagged or untagged subunits). Briefly: Whole-cell current density of codon-optimized HyNaC2/3/5 with or without C-terminal HA-tags. The settings on record: RFamide II 1 µM, mean ± S.E.M.
Method: The tags were separated from the coding sequence by a flexible linker ([sequence]). Fusion was performed in a two-step PCR protocol. For HyNaC2, the forward primer was 5’-[sequence]-3’, and the reverse primers were 5’-[sequence]-3’ and 5’-[sequence]-3’. For HyNaC3, the forward primer was 5’-[sequence]-3’, and the reverse primers were 5’-[sequence]-3’ and 5’-[sequence]-3’. And for HyNaC5, the forward primer was 5’-[sequence]-3’, and the reverse primers were 5’-[sequence]-3’ and 5’-[sequence]-3’. Constructs were cloned into pcDNA3.1(-) using BamHI and BbsI (HyNaC2) or BamHI and KpnI (HyNaC3 and HyNaC5). The sequences of the constructs were confirmed by sequencing of the full coding sequence (Eurofins Genomics).
Codon optimization of HyNaC2, HyNaC3, and HyNaC5 to Homo sapiens codon usage preferences was performed by BioCat GmbH (Heidelberg, Germany). The cDNA was synthesized with a C-terminal flexible linker ([sequence]) followed by three HA-tags and cloned into pcDNA3.1(-) using the same restriction sites as above. To create the codon-optimized constructs without linkers and tags, PCR was performed to insert an additional restriction site of either BbsI (HyNaC2) or KpnI (HyNaC3 and HyNaC5) between the end of the HyNaC coding sequence and the start of the linker. The resulting constructs were digested with the respective restriction enzymes and cloned into pcDNA3.1(-). The successful removal of linkers and tags was confirmed by sequencing (Eurofins Genomics).
Cells were transfected with 0.6 µg each of HyNaC2, HyNaC3, and HyNaC5 plus 0.2 µg of GFP per 35 mm dish using calcium phosphate transfection. Approximately 48 h after transfection, the culture dish with attached cells was mounted on the stage of an inverted phase-contrast microscope (IX71, Olympus). The recording chamber was perfused with the following bath solution (in mM): NaCl 128, KCl 5.4, HEPES 10, glucose 5.5, MgCl2 1, CaCl2 2; pH was adjusted with NaOH to 7.4 at RT (22–25 °C).
Patch-clamp experiments were performed in the whole-cell configuration, using an Axon-200B amplifier (Molecular Devices; San Jose, CA, USA) and an Axon Digidata 1440 A acquisition system controlled by the Clampex 10.0 software (Molecular Devices). Signals were low pass filtered at 1 kHz and digitized at 4 kHz. Micropipettes (4–6 MΩ) were prepared from borosilicate glass capillaries with a micropipette puller (DMZ-Universal Electrode Puller; Zeitz Instruments, Martinsried, Germany) and filled with an intracellular solution containing (in mM): NaCl 10, KCl 121, HEPES 10, EGTA 5, MgCl2 2. Holding potential was −70 mV. Capacitance and series resistances were compensated electronically at 80% and digital data were stored in a compatible PC for off-line analysis using Clampfit 10.0 software (Molecular Devices).
Electrophysiological data were analyzed offline using Clampfit 10.0 (Molecular Devices). Current density was obtained by dividing the maximal current amplitude (pA) by cell capacitance (pF). Data are presented as mean ± S.D., except for data in Figure 5, which are shown as mean ± S.E.M. The concentration–response curve for RFamide-II and codon-optimized HyNaCs was fitted to a Hill function: I=Imin+ Imax−Imin/1 + X/EC50^H
Statistical analysis was done using an unpaired t-test to compare two conditions and a one-way ANOVA (GraphPad Prism 6.0) for more than two conditions. Statistical significance was defined as p < 0.05.
In experiment [6] the test system is HyNaC2/3/5. Briefly: Concentration-response curve (whole-cell patch clamp), codon-optimized HyNaC2/3/5 in HEK cells. The class given is cell-based, Hydra magnipapillata. Particulars: codon-optimized HyNaC2/3/5, HEK cells, −70 mV, pH 7.4, RT, mean ± S.D., n = 8, read-out: apparent affinity (EC50, Hill fit).
From the text: as §2
where I is the current, [X] is the peptide concentration, Imin and Imax are the […] currents, respectively, EC50 is the concentration at which 50% of the maximal current is obtained, and H is the Hill coefficient (GraphPad Prism 6.0).

Where two headings read alike, the source gives them in different places.

Turning to “pQWFNGRFamide [Hydra-RFamide II, neuropeptide of the Hydra nervous system]”, in the experiment with HyNaCs, the “activation of HyNaCs” value was “directly activated”. The “type of current elicited” value in the experiment with HyNaC2/3/5 [1] (codon-optimized HyNaC2/3/5, COS-7 cells, 1 µM Hydra-RFamide II) was “sustained inward currents”; in the experiment with HyNaC2/3/5 [2] (codon-optimized HyNaC2/3/5, HEK cells, 1 µM Hydra-RFamide II) it was “sustained inward currents”. The current density in the experiment with HyNaC2/3/5 [1] (codon-optimized HyNaC2/3/5, COS-7 cells, 1 µM Hydra-RFamide II, pH 7.4, RT, n = 10, p < 0.001 vs native) was found to be 17 ± 9 pA/pF; with HyNaC2/3/5 [1] (native HyNaC2/3/5, COS-7 cells, text: 1 µM Hydra-RFamide II (Figure 3 legend: native trace 10 µM RFamide I), n = 12) it was 2 ± 3 pA/pF; with HyNaC2/3/5 [2] (codon-optimized HyNaC2/3/5, HEK cells, 1 µM Hydra-RFamide II, pH 7.4, RT, n = 15, p < 0.001 vs native), 113 ± 9 pA/pF; in experiment [5] (HyNaC2 carried the HA-tag, n = 7–8, p < 0.05 vs untagged) it was 49 ± 9 pA/pF; in experiment [5] (HyNaC3 carried the HA-tag, n = 7–8, p < 0.05 vs untagged) it was 57 ± 8 pA/pF; in experiment [5] (HyNaC5 carried the HA-tag, n = 7–8, p < 0.05 vs untagged), 50 ± 9 pA/pF. Moreover, the current density came out at 22 ± 7 pA/pF in experiment [5] (all subunits carrying an HA-tag, n = 7, p < 0.0001) and 84 ± 9 pA/pF in experiment [5] (no subunit carried the tag, n = 7–8). Besides, the “current amplitude compared with Hydra-RFamide I” value in the experiment on HyNaC2/3/5 [1] (codon-optimized HyNaC2/3/5, COS-7 cells, text: 10 µM Hydra-RFamide II (Figure 3B legend: 1 µM), n = 10, p = 0.87 (unpaired t-test)) was “comparable current amplitudes”. Moreover, in the experiment on HyNaC2/3/5 [3] (1 µM Hydra-RFamide II), the response in oocytes entry is reported as “maximal response”. In the experiment with HyNaC2/3/5 [4] (HEK 293 cells expressing codon-optimized HyNaC2/3/5, n = 48 cells, p < 0.001 vs native), the “intracellular Ca^2+ signals” value was “robust intracellular Ca^2+ signals”. Besides, in the experiment on HyNaC2/3/5 [4] (HEK 293 cells expressing native HyNaC2/3/5, n = 36 cells), the “intracellular Ca^2+ increase” value is “hardly increased intracellular Ca^2+ above background”. Moreover, the EC50 with HyNaC2/3/5 [6] is 140 ± 30 nM.
As to pQWLGGRFamide [Hydra-RFamide I], the “activation of HyNaCs” value in the experiment with HyNaCs was “directly activated”. In addition, in the experiment on HyNaC2/3/5 [1] (codon-optimized HyNaC2/3/5, COS-7 cells, text: 1 µM Hydra-RFamide I (Figure 3B legend: 10 µM), n = 10, p = 0.87 (unpaired t-test)), the “current amplitude compared with Hydra-RFamide II” value is recorded as “comparable current amplitudes”. Moreover, the current density with HyNaC2/3/5 [1] (native HyNaC2/3/5, COS-7 cells, 10 µM RFamide I, pH 7.4, RT (22–25 °C), n = 12, p < 0.001 vs HEK) turned out to be 5 ± 2 pA/pF; with HyNaC2/3/5 [2] (native HyNaC2/3/5, HEK cells, 10 µM RFamide I, pH 7.4, RT (22–25 °C), n = 12), 42 ± 10 pA/pF. The “type of current elicited” value with HyNaC2/3/5 [2] (native HyNaC2/3/5, HEK cells, 10 µM RFamide I) is given as “sustained inward currents”. Besides, in the experiment with HyNaC2/3/5 [3] (10 µM Hydra-RFamide I), the response in oocytes entry is “maximal response”.
